Experimental data as given in patent US11512053B2, “Arginine methyltransferase inhibitors and uses thereof” (priority 2013, dated 2022).
pIC50: −log10 of the molar value. Where two headings read alike, the source gives them in different places.

Assays:
[1] = molecular target: full-length human PRMT1 isoform 1 (GST-tagged) (Homo sapiens, UniProt Q99873); test: PRMT1 Biochemical Assay (3H-SAM Flashplate, peptide substrate)
Procedure, shortened: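 GST-tagged full-length PRMT1 from baculovirus-infected cells, preincubated 30 min at room temperature with compound in 20 mM Bicine pH 7.6, TCEP, BSG, Tween 20. Reaction started with 3H-SAM plus biotinylated peptide, stopped with 300 uM unlabelled SAM. Streptavidin Flashplate capture and scintillation counting; % inhibition curve-fitted for IC50.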

[2] = molecular target: full-length human PRMT8 isoform 1 (Homo sapiens, UniProt Q9NR22); test: PRMT8 Biochemical Assay (3H-SAM Flashplate, peptide substrate); conditions: read-out: Biochemical IC50 PRMT8
Procedure, shortened: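 Full-length human PRMT8 (1.5 nM, E. coli-expressed, GST removed) preincubated 30 min at room temperature with compound, then reacted with 50 nM 3H-SAM plus 550 nM cold SAM and 150 nM biotinylated H4 31-45 peptide in 20 mM Bicine pH 7.6, 1 mM TCEP, 0.005% BSG, 0.002% Tween 20, 2% DMSO. Quenched with 400 uM cold SAM; labelled peptide captured on streptavidin Flashplate, % inhibition versus 1 mM SAH and DMSO controls fitted to 4- or 3-parameter curve.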

[3] = single experiment or average of multiple experiments

Sequence of full-length human PRMT8 isoform 1 (Q9NR22 whole entry, canonical isoform): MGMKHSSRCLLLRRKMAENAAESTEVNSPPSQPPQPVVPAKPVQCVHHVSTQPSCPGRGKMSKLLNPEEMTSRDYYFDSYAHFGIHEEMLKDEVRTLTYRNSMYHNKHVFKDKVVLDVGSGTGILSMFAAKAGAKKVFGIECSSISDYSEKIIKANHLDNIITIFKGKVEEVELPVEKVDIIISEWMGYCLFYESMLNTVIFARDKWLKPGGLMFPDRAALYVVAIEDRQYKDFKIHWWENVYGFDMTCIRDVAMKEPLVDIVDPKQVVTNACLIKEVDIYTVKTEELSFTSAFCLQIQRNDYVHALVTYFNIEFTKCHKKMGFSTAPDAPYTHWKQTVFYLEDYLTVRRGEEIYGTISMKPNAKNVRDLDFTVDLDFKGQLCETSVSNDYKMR
Sequence of full-length human PRMT1 isoform 1 (GST-tagged) (Q99873 with tags, fused parts or gaps): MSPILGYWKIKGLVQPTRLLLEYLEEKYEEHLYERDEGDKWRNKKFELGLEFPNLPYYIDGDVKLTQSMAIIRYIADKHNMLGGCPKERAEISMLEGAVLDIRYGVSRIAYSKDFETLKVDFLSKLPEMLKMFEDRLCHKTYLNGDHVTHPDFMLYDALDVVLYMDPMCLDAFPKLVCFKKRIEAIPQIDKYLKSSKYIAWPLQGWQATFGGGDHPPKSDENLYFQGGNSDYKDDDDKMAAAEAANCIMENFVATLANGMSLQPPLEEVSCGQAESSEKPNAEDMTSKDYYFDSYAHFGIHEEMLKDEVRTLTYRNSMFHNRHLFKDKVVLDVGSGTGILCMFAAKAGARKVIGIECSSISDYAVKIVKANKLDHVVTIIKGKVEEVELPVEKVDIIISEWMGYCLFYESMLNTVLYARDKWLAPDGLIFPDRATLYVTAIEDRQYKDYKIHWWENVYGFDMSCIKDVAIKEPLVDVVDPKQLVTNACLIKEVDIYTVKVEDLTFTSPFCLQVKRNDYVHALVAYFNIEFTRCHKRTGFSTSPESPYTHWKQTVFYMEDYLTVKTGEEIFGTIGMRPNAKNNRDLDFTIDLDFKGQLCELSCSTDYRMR

Row | pIC50 [1] | pIC50 [1, 3] | pIC50 [2] | pIC50 [2, 3] | Compound
1 | > 7.00 | 7.96 | > 7.00 | 7.80 | CNCCN(C)Cc1c[nH]nc1[C@H]1CC[C@H](N(CCOc2ccccc2)C(=O)CCCOC)CC1 [Compound 229]
2 | 6.00 to 7.00 | 6.83 | 6.00 to 7.00 | 6.38 | CCN(C(=O)CC1CCOCC1)[C@H]1CC[C@@H](c2n[nH]cc2CN(C)CCNC)CC1 [Compound 196]
3 | > 7.00 | 7.87 | > 7.00 | 7.59 | CNCCN(C)Cc1c[nH]nc1[C@H]1CC[C@H](N(CCOC)C(=O)CCOc2ccccc2)CC1 [Compound 230]
